Where “and” joins values, the source holds several entries; their conditions need not be identical. Identical values can stand only once.
Assay: xn = mol fraction of the nth substance listed

CN(C)C=O + CO
Conditions | viscosity
293.15 K, 101 kPa, x2 = 0.0998 | 0.835 mPa·s
293.15 K, 101 kPa, x2 = 0.2 | 0.809 mPa·s
293.15 K, 101 kPa, x2 = 0.3 | 0.782 mPa·s
293.15 K, 101 kPa, x2 = 0.4002 | 0.754 mPa·s
293.15 K, 101 kPa, x2 = 0.5 | 0.723 mPa·s
293.15 K, 101 kPa, x2 = 0.6 | 0.693 mPa·s
293.15 K, 101 kPa, x2 = 0.6997 | 0.665 mPa·s
293.15 K, 101 kPa, x2 = 0.8 | 0.64 mPa·s
293.15 K, 101 kPa, x2 = 0.8998 | 0.613 mPa·s
298 K, 101.3 kPa, x2 = 0.1198 | 0.766 mPa·s
298 K, 101.3 kPa, x2 = 0.2267 | 0.739 mPa·s
298 K, 101.3 kPa, x2 = 0.4094 | 0.693 mPa·s
298 K, 101.3 kPa, x2 = 0.5596 | 0.655 mPa·s
298 K, 101.3 kPa, x2 = 0.6854 | 0.623 mPa·s
298 K, 101.3 kPa, x2 = 0.7922 | 0.596 mPa·s
298 K, 101.3 kPa, x2 = 0.884 | 0.573 mPa·s
298 K, 101.3 kPa, x2 = 0.9639 | 0.553 mPa·s
298.15 K, 101 kPa, x1 = 0.3048 | 0.568 mPa·s
298.15 K, 101 kPa, x2 = 0.0998 | 0.782 mPa·s
298.15 K, 101 kPa, x2 = 0.2 | 0.758 mPa·s
298.15 K, 101 kPa, x2 = 0.3 | 0.734 mPa·s
298.15 K, 101 kPa, x2 = 0.4002 | 0.705 mPa·s
298.15 K, 101 kPa, x2 = 0.5 | 0.678 mPa·s
298.15 K, 101 kPa, x2 = 0.6 | 0.649 mPa·s
298.15 K, 101 kPa, x2 = 0.6997 | 0.622 mPa·s
298.15 K, 101 kPa, x2 = 0.8 | 0.596 mPa·s
298.15 K, 101 kPa, x2 = 0.8998 | 0.572 mPa·s
303.15 K, 101 kPa, x1 = 0.0995 | 0.5458 mPa·s
303.15 K, 101 kPa, x1 = 0.2004 | 0.5714 mPa·s
303.15 K, 101 kPa, x1 = 0.3004 | 0.5986 mPa·s
303.15 K, 101 kPa, x1 = 0.3993 | 0.6269 mPa·s
303.15 K, 101 kPa, x1 = 0.5008 | 0.6547 mPa·s
303.15 K, 101 kPa, x1 = 0.5728 | 0.6716 mPa·s
303.15 K, 101 kPa, x1 = 0.6998 | 0.7023 mPa·s
303.15 K, 101 kPa, x1 = 0.8014 | 0.7263 mPa·s
303.15 K, 101 kPa, x1 = 0.8996 | 0.7515 mPa·s
303.15 K, 101 kPa, x2 = 0.0998 | 0.736 mPa·s
303.15 K, 101 kPa, x2 = 0.2 | 0.713 mPa·s
303.15 K, 101 kPa, x2 = 0.3 | 0.688 mPa·s
303.15 K, 101 kPa, x2 = 0.4002 | 0.663 mPa·s
303.15 K, 101 kPa, x2 = 0.5 | 0.674 mPa·s and 0.636 mPa·s
303.15 K, 101 kPa, x2 = 0.6 | 0.608 mPa·s
303.15 K, 101 kPa, x2 = 0.6997 | 0.584 mPa·s
303.15 K, 101 kPa, x2 = 0.8 | 0.559 mPa·s
303.15 K, 101 kPa, x2 = 0.8998 | 0.534 mPa·s
308.15 K, 101 kPa, x1 = 0.0995 | 0.5094 mPa·s
308.15 K, 101 kPa, x1 = 0.2004 | 0.5345 mPa·s
308.15 K, 101 kPa, x1 = 0.3004 | 0.5606 mPa·s
308.15 K, 101 kPa, x1 = 0.3993 | 0.5882 mPa·s
308.15 K, 101 kPa, x1 = 0.5008 | 0.6152 mPa·s
308.15 K, 101 kPa, x1 = 0.5728 | 0.6314 mPa·s
308.15 K, 101 kPa, x1 = 0.6998 | 0.6621 mPa·s
308.15 K, 101 kPa, x1 = 0.8014 | 0.6853 mPa·s
308.15 K, 101 kPa, x1 = 0.8996 | 0.7087 mPa·s
313.15 K, 101 kPa, x1 = 0.0995 | 0.4776 mPa·s
313.15 K, 101 kPa, x1 = 0.2004 | 0.5008 mPa·s
313.15 K, 101 kPa, x1 = 0.3004 | 0.5259 mPa·s
313.15 K, 101 kPa, x1 = 0.3993 | 0.5524 mPa·s
313.15 K, 101 kPa, x1 = 0.5008 | 0.5781 mPa·s
313.15 K, 101 kPa, x1 = 0.5728 | 0.5933 mPa·s
313.15 K, 101 kPa, x1 = 0.6998 | 0.6213 mPa·s
313.15 K, 101 kPa, x1 = 0.8014 | 0.644 mPa·s
313.15 K, 101 kPa, x1 = 0.8996 | 0.667 mPa·s
313.15 K, 101 kPa, x2 = 0.0998 | 0.655 mPa·s
313.15 K, 101 kPa, x2 = 0.2 | 0.635 mPa·s
313.15 K, 101 kPa, x2 = 0.3 | 0.612 mPa·s
313.15 K, 101 kPa, x2 = 0.4002 | 0.589 mPa·s
313.15 K, 101 kPa, x2 = 0.5 | 0.58 mPa·s and 0.565 mPa·s
313.15 K, 101 kPa, x2 = 0.6 | 0.54 mPa·s
313.15 K, 101 kPa, x2 = 0.6997 | 0.517 mPa·s
313.15 K, 101 kPa, x2 = 0.8 | 0.493 mPa·s
313.15 K, 101 kPa, x2 = 0.8998 | 0.47 mPa·s
318.15 K, 101 kPa, x1 = 0.0995 | 0.4467 mPa·s
318.15 K, 101 kPa, x1 = 0.2004 | 0.4692 mPa·s
318.15 K, 101 kPa, x1 = 0.3004 | 0.4936 mPa·s
318.15 K, 101 kPa, x1 = 0.3993 | 0.5191 mPa·s
318.15 K, 101 kPa, x1 = 0.5008 | 0.5439 mPa·s
318.15 K, 101 kPa, x1 = 0.5728 | 0.5587 mPa·s
318.15 K, 101 kPa, x1 = 0.6998 | 0.5861 mPa·s
318.15 K, 101 kPa, x1 = 0.8014 | 0.6075 mPa·s
318.15 K, 101 kPa, x1 = 0.8996 | 0.6304 mPa·s
323.15 K, 101 kPa, x1 = 0.0995 | 0.4174 mPa·s
323.15 K, 101 kPa, x1 = 0.2004 | 0.4387 mPa·s
323.15 K, 101 kPa, x1 = 0.3004 | 0.4617 mPa·s
323.15 K, 101 kPa, x1 = 0.3993 | 0.4864 mPa·s
323.15 K, 101 kPa, x1 = 0.5008 | 0.51 mPa·s
323.15 K, 101 kPa, x1 = 0.5728 | 0.5243 mPa·s
323.15 K, 101 kPa, x1 = 0.6998 | 0.5501 mPa·s
323.15 K, 101 kPa, x1 = 0.8014 | 0.5705 mPa·s
323.15 K, 101 kPa, x1 = 0.8996 | 0.5923 mPa·s
323.15 K, 101 kPa, x2 = 0.0998 | 0.588 mPa·s
323.15 K, 101 kPa, x2 = 0.2 | 0.569 mPa·s
323.15 K, 101 kPa, x2 = 0.3 | 0.549 mPa·s
323.15 K, 101 kPa, x2 = 0.4002 | 0.528 mPa·s
323.15 K, 101 kPa, x2 = 0.5 | 0.503 mPa·s and 0.506 mPa·s
323.15 K, 101 kPa, x2 = 0.6 | 0.483 mPa·s
323.15 K, 101 kPa, x2 = 0.6997 | 0.46 mPa·s
323.15 K, 101 kPa, x2 = 0.8 | 0.438 mPa·s
323.15 K, 101 kPa, x2 = 0.8998 | 0.415 mPa·s

— the CheMixHub viscosity set
